Results: patent publication US20050096347A1, “Beta3-Adrenoreceptor agonists, agonist compositions and methods of using” (Molecular Design International, Inc., priority 1997, published 2005)
Structures can show the parent of a compound that is named as a salt. Where two headings read alike, the source gives them in different places. One block for each compound: values may come before it.

Assays:
rat-β3-AR [1] = target: T1, rat-β3-AR (Rattus norvegicus, UniProt P26255); assay: cAMP accumulation in CHO cells expressing rat β3-AR; format: cell-based; settings: for Emax: read-out: Emax, maximal cAMP accumulation
T1 construct: expressed in transfected cells; host or cells: CHO cells
Method: (§1) cAMP Radioimmunoassay (CAMP-RIA Assay). […] The precipitated protein was dissolved in 0.1N NaOH.

human β2 Adrenoreceptor = target: T2, human β2 Adrenoreceptor (Homo sapiens, UniProt P07550); assay: Radioligand competition binding, human β2 adrenoreceptor expressed in CHO cells ([125I]ICYP); settings: for Ki: CHO cells (Table 8), read-out: hβ2 Binding ki; for pKi ± SEM, Human β2-AR: CHO cells, [125I]ICYP, N = 3-9 (Table 5)
T2 construct: expressed in transfected cells

β1-AR = β1-AR (Rattus norvegicus, UniProt P18090); assay: Chronotropic responses of spontaneously beating isolated rat right atria
Method: (§2) Male Sprague Dawley rats (Harlan Industries, Cumberland, Ind.) housed under a 12 hour light/dark cycle and fed Purina Rodent Laboratory Chow (Ralston Purina., St. Louis, Mo.) and water ad libitum, were used for the studies. […] All tissues were suspended and equilibrated in modified Kreb's buffer in water-jacketed baths at 37° C. Resting tensions of 1 g for right atria, trachea and aorta, and of 200 mg for esophageal smooth muscle were used. All tissue responses were measured on a Grass Polygraph Model 7C with a Grass FT-03C isometric force-displacement transducer.
The tissue was again washed 6-7 times with 10 ml of buffer, followed by repeated washes every 10-15 min.

Atypical-β/β3-AR = Atypical-β/β3-AR (Rattus norvegicus, UniProt P26255); assay: Relaxation of carbachol-precontracted rat esophageal smooth muscle; settings: for I.A. (intrinsic activity), Esophageal Smooth Muscle (Atypical-β/β3-AR): maximal response relative to maximal response of (−)-isoproterenol
Method: as §2
(§3) Carbachol-precontracted tissues were included as controls through the duration of relaxation studies.

[2] = target: T3, Thromboxane A2/Prostaglandin H2 (TP) receptor (Homo sapiens, UniProt P21731); assay: Radioligand competition binding, TP receptor sites in human platelets ([3H]SQ 29,548); settings: [3H]SQ 29,548 as radioligand; platelets; N = 4-9
T3 construct: endogenous in cells; host or cells: human platelets (from platelet rich plasma)
T3 sequence (P21731 1-343): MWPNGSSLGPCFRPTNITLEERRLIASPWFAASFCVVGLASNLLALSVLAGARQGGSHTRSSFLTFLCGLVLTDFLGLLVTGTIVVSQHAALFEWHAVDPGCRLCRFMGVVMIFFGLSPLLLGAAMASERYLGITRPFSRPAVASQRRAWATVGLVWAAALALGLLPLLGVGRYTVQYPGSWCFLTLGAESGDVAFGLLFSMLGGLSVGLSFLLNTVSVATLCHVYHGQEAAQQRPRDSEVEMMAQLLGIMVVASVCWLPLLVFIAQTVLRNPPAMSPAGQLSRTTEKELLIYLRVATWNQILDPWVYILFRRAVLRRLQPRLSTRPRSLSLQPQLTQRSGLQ
Method: For binding experiments, human platelet rich plasma (PRP) was centrifuged and re-suspended in 50 mM Tris-saline buffer, pH 7.4. […] Filters were placed in plastic scintillation vials containing 10 mL of an emulsion-type scintillation mixture and radioactivity measured by liquid scintillation spectrometry.

β2-AR = β2-AR (Rattus norvegicus, UniProt P10608); assay: Relaxation of carbachol-precontracted isolated rat tracheal strips; settings: for I.A. (intrinsic activity), Trachea: maximal response relative to maximal response of (−)-isoproterenol
Method: as §2, §3

rat-β3-AR [3] = target: T1, rat-β3-AR; assay: Binding in CHO cells expressing rat β3-AR; settings: mean ± SEM (n in parentheses), read-out: pKi (−log Ki) for binding, rat-β3-AR (converted)
human β1 Adrenoreceptor = human β1 Adrenoreceptor (Homo sapiens, UniProt P08588); assay: Radioligand competition binding, human β1 adrenoreceptor expressed in CHO cells ([125I]ICYP)
Method: Competitive and comparative binding experiments on β1 Adrenoreceptors, β2 Adrenoreceptors and β3-Adrenoreceptors expressed in CHO cells were performed as described previously. […] CHO cells grown to a confluence in 150-mL flasks were detached into Ham's F-12 medium after treatment with 0.05% trypsin-0.53 mM EDTA solution. The cells were then pelleted and washed three times with Tris-EDTA buffer (50 mM Tris-HCl, 150 mM NaCl, 20 mM EDTA, pH 7.4) and resuspended in the same buffer.
Competition binding experiments were performed in duplicates using these whole cells. […] The final volume in each tube was 0.25 mL. Nonspecific binding (5-30%) was determined in the presence of 1 μM (±)-propranolol. Incubations were carried out for 60 min at 37° C. Binding reactions were terminated by rapid filtration through Whatman GF/B glass fiber filters on a Brandel model 12-R tissue harvester. Filters were washed twice with ice cold Tris-EDTA buffer to remove free ICYP. The filters were dried under tissue harvester vacuum and radioactivity was measured by gamma scintillation spectrometry (Beckman model 8000 gamma counter, Palo Alto, Calif.). Specific binding to β Adrenoreceptor sites in these cells varied from 94 to 100%
Inhibitory concentration-50 (IC50) value of each competing drug was determined graphically from individual plots of percent radioligand bound versus log drug concentration on O-adrenoceptors and human platelets. […] Dissociation constants (Ki) for each competing drug were calculated using the equation: [formula] and the data expressed as pKi (i.e., −log Ki) values.

Human β3 Adrenoreceptors = target: T4, Human β3 Adrenoreceptors (Homo sapiens, UniProt P13945); assay: hβ3 cAMP functional activity in CHO cells expressing human β3 adrenoreceptors (Table 8); format: cell-based; settings: for EC50: read-out: hβ3 cAMP EC50(nM) +/−SEM
T4 construct: expressed in transfected cells

Human β3-AR [4] = target: T5, Human β3-AR (Homo sapiens, UniProt P13945); assay: cAMP radioimmunoassay (cAMP-RIA), CHO cells expressing human β3-AR; format: cell-based; set-up: expressed in transfected cells; settings: for I.A., Human β3-AR, cAMP-RIA assay: percentage of maximal response of R-(−)-isoproterenol (100%)
Method: as §1

Human β1-AR [5] = target: T6, Human β1-AR (Homo sapiens, UniProt P08588); assay: cAMP radioimmunoassay (cAMP-RIA), CHO cells expressing human β1-AR; format: cell-based; set-up: expressed in transfected cells; settings: percentage of maximal response of R-(−)-isoproterenol (100%)
Method: as §1

Human β3-AR [6] = target: T5, Human β3-AR; assay: CRE-luciferase reporter gene (CRE-LUC) assay, CHO cells expressing human β3-AR
Method: (§4) cAMP response element (CRE)-luciferase(LUC) reporter gene (CRE-LUC) assay. […] The transfected CHO cells were seeded at a density of 40,000/well in 96 well microtiter plates (Culturplate, Packard) and allowed to grow for 20 hours. After 20 hours, the cells were treated with varying drug concentrations (10^−11 to 10^−4 M) for 4 hours. Following drug exposures, the cells were lysed and luciferase activity measured using the LucLite® assay kit (Packard). Changes in light production were measured by a Topcount® luminometer (Packard).

Human β2-AR = Human β2-AR (Homo sapiens, UniProt P07550); assay: CRE-luciferase reporter gene (CRE-LUC) assay, CHO cells expressing human β2-AR
Method: as §4

Human β1-AR [7] = target: T6, Human β1-AR; assay: CRE-luciferase reporter gene (CRE-LUC) assay, CHO cells expressing human β1-AR
Method: as §4

human β3-Adrenoreceptor = target: T7, human β3-Adrenoreceptor (Homo sapiens, UniProt P13945); assay: Radioligand competition binding, human β3 adrenoreceptor expressed in CHO cells ([125I]ICYP); settings: N = 3-9 (Table 5)
T7 construct: expressed in transfected cells

[8] = CHO cells, N.A. = Not active at 100 μM, N = 4-12, read-out: pKact ± SEM, Human β3-AR, cAMP-RIA assay (converted)
[9] = percentage of maximal response of R-(−)-isoproterenol (Table 6 B)

T2 sequence (P07550 whole entry): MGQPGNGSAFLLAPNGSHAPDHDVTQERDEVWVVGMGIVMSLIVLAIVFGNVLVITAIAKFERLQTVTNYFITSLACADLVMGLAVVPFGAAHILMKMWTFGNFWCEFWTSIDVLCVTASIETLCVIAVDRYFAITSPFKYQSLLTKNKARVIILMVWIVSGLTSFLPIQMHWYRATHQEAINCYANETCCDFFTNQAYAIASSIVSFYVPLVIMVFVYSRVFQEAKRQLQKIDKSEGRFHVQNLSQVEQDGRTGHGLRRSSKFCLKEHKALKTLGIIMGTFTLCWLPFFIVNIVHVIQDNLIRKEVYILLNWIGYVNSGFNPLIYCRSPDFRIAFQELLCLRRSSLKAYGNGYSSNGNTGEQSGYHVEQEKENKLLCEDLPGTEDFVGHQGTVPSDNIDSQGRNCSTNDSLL
Chain of human β1 Adrenoreceptor (P08588 whole entry): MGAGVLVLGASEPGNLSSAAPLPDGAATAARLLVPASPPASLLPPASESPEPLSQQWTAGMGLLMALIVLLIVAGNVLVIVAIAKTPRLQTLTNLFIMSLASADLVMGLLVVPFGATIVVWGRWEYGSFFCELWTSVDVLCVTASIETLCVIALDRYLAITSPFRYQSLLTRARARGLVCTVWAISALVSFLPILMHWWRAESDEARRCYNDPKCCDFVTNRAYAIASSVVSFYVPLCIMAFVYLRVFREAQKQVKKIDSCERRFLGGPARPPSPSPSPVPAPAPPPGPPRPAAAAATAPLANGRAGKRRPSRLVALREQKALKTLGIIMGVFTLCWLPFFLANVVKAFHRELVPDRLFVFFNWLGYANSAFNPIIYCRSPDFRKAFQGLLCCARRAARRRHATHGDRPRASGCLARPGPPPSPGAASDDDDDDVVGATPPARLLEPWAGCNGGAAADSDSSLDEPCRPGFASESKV
T6 sequence (P08588 whole entry): as above
Chain of Atypical-β/β3-AR (P26255 whole entry): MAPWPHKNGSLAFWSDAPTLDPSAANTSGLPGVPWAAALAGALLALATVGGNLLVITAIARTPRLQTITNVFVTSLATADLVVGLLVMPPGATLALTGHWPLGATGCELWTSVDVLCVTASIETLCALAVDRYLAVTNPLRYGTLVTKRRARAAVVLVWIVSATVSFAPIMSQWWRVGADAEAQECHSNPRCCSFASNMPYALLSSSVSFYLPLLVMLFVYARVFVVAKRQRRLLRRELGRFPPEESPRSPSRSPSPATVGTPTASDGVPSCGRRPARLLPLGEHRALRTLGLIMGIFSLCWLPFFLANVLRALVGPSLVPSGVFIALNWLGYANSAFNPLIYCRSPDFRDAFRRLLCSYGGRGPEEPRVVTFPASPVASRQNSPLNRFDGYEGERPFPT
T1 sequence (P26255 whole entry): as above
T4 sequence (P13945 whole entry): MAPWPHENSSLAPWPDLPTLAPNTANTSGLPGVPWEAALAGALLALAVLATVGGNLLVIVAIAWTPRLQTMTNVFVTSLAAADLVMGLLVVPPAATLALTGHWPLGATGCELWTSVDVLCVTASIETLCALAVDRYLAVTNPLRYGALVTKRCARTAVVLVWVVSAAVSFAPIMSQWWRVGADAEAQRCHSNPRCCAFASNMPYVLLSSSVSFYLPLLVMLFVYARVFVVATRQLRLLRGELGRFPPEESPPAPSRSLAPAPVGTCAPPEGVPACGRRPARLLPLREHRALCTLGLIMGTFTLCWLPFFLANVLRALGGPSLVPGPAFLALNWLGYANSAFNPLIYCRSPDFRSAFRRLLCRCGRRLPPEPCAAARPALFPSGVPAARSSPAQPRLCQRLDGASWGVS
T5 sequence (P13945 whole entry): as above
Chain of β2-AR (P10608 whole entry): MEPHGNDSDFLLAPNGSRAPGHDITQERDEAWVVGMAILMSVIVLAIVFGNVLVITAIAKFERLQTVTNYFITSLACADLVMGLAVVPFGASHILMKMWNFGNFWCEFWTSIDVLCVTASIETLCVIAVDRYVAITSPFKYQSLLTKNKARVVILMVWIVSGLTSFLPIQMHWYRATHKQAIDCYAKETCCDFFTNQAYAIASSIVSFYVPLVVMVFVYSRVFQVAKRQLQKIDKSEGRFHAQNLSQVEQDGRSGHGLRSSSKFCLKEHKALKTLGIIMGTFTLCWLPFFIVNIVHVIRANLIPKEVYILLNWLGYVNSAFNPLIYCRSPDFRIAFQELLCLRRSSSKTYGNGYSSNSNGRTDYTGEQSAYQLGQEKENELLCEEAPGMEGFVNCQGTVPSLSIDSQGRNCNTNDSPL
Chain of β1-AR (P18090 whole entry): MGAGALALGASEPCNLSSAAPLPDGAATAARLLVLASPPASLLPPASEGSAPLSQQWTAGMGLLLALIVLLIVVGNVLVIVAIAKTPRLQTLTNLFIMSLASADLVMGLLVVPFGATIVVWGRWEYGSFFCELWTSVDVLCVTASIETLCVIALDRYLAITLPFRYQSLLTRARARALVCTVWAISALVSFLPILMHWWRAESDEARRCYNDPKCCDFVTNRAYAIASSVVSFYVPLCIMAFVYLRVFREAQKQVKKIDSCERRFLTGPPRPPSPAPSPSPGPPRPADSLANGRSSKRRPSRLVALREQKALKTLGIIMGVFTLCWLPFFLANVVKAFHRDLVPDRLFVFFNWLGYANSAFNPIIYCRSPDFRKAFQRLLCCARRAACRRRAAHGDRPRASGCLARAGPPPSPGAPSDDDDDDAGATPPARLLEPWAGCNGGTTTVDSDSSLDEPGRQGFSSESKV
Chain of Human β2-AR (P07550 whole entry): as the sequence (P07550 whole entry) above
T7 sequence (P13945 whole entry): as the sequence (P13945 whole entry) above

SMILES: Br.CC(=O)Nc1c(I)cc(CC2NCCc3cc(O)c(O)cc32)cc1I (stereo not shown) [Compound 15, 1-(4-Acetamido-3,5-diiodobenzyl)-6,7-dihydroxy-1,2,3,4-tetrahydroisoquinoline Hydrobromide]
EC50 (rat-β3-AR [1]; CHO cells, mean ± SEM (n in parentheses), read-out: pKact (−log EC50) for cAMP accumulation, rat-β3-AR (converted)): 0.457 nM
Emax (rat-β3-AR [1]; relative to that of (−)-isoproterenol, CHO cells expressing rat-β3-AR): 89.6 ± 6.93%
pKi ± SEM, Human β2 Adrenoreceptor CHO (human β2 Adrenoreceptor; [125I]ICYP as radioligand, N = 4-9): 8.06
EC50 (β1-AR): 1.1 nM
I.A. (intrinsic activity), Right Atria (β-AR) (β1-AR; maximal response relative to maximal response of (−)-isoproterenol): 0.93 ± 0.04
EC50 (Atypical-β/β3-AR): 2.09 nM
I.A. (intrinsic activity), Esophageal Smooth Muscle (Atypical-β/β3-AR) (Atypical-β/β3-AR): 0.99 ± 0.03
pKi ± SEM, Human TP receptors [2]: 6.45
EC50 (β2-AR): 0.603 nM
I.A. (intrinsic activity), Trachea (β2-AR): 0.84 ± 0.02
Ki (rat-β3-AR [3]): 52.5 nM

Ki (human β1 Adrenoreceptor): > 3000 nM
EC50 (Human β3 Adrenoreceptors): > 3160 nM
Ki (human β2 Adrenoreceptor): > 3000 nM
SMILES: COc1cc(CC2NCCc3nc(N)sc32)cc(OC)c1OC (stereo not shown)

SMILES: COc1c(I)cc(CC2NCCc3nc(NC(C)=O)sc32)cc1I.O=C(O)/C=C\C(=O)O (stereo not shown) [Compound 10]
I.A., Human β3-AR, cAMP-RIA assay (Human β3-AR [4]): <10%
I.A. ± SEM, Human β1-AR, cAMP-RIA assay (Human β1-AR [5]): <10%

EC50 (Human β3-AR [4]): 2.51 nM
I.A. ± SEM, Human β1-AR, cAMP-RIA assay (Human β1-AR [5]): 109 ± 10%
SMILES: COc1cc(CC2NCCc3cc(O)c(O)cc32)cc(OC)c1OC (racemic) [Compound 1, trimetoquinol, reference compound]

EC50 (Human β3-AR [6]): 35.5 nM
EC50 (Human β2-AR): 229 nM
EC50 (Human β1-AR [7]): 1950 nM
SMILES: COc1c(I)cc(CC2NCCc3cc(O)ccc32)cc1I (stereo not shown) [6-Monophenolic TMQ analog (A-4)]

melting point: 196 to 200 °C (dec.)
SMILES: COc1cc2c(cc1OC)C(Cc1cc(I)c(NC(C)=O)c(I)c1)NCC2 (stereo not shown) (as salt: hydrochloride) [6,7-Dimethoxy-acetamidoDITMQ, 1-(4-Acetamido-3,5-diiodobenzyl)-6,7-dimethoxy-1,2,3,4-tetrahydroisoquinoline Hydrochloride]

pKi ± SEM, Human β1-AR (human β1 Adrenoreceptor; CHO cells, [125I]ICYP, N = 3-9 (Table 5)): 5.21 ± 0.08
pKi ± SEM, Human β2-AR (human β2 Adrenoreceptor): 6.21 ± 0.12
pKi ± SEM, Human β3-AR (human β3-Adrenoreceptor): 4.17 ± 0.05
EC50 (Human β3-AR [4]; [8]): 8710 nM
I.A., Human β3-AR, cAMP-RIA assay (Human β3-AR [4]): 54 ± 1%
I.A. ± SEM, Human β1-AR, cAMP-RIA assay (Human β1-AR [5]): <10%
SMILES: COc1cc(CC2NCCc3nc(N)sc32)cc(OC)c1OC.Cl.Cl (stereo not shown) [7 (B-29), 2-Amino-4-(3′,4′,5′-trimethoxyphenylmethyl)-4,5,6,7-tetrahydro-thiazolo[5,4-c]pyridine Dihydrochloride]

Ki (human β1 Adrenoreceptor): 14.2 nM
hβ3 cAMP % Iso +/−SEM (Human β3 Adrenoreceptors): 81 +/− 3 % Iso
EC50 (Human β3 Adrenoreceptors): 46 nM
Ki (human β2 Adrenoreceptor): 24 nM
SMILES: [N-]=[N+]=Nc1ccc(CC2NCCc3cc(O)c(O)cc32)cc1I (stereo not shown)

Emax (rat-β3-AR [1]; CHO): 100%
I.A. (intrinsic activity), Esophageal Smooth Muscle (Atypical-β/β3-AR) (Atypical-β/β3-AR): 1.00
I.A. (intrinsic activity), Trachea (β2-AR): 1.00
I.A., Human β3-AR, cAMP-RIA assay (Human β3-AR [4]): 100%
SMILES: CC(C)NC[C@H](O)c1ccc(O)c(O)c1 (single isomer, unassigned) [(−)Isoproterenol, isoproterenol, reference compound]

EC50 (Human β3-AR [6]): 195 nM
I.A., Human β3-AR, CRE-LUC assay (Human β3-AR [6]; [9]): 62 ± 3%
pKi ± SEM, Human β2-AR (human β2 Adrenoreceptor): 6.37 ± 0.08
pKi ± SEM, Human β3-AR (human β3-Adrenoreceptor): 5.83 ± 0.15
EC50 (Human β3-AR [4]; [8]): 112 nM
I.A., Human β3-AR, cAMP-RIA assay (Human β3-AR [4]): 67 ± 3%
I.A. ± SEM, Human β2-AR, CRE-LUC assay (Human β2-AR; [9]): <15%
SMILES: COc1c(I)cc(CC2NCCc3nc(N)sc32)cc1I.Cl.Cl (stereo not shown) [9 (B-28), 2-Amino-4-(3′,5′-diiodo-4′-methoxyphenylmethyl)-4,5,6,7-tetrahydrothiazolo[5,4-c]pyridine Dihydrochloride]
